Here are results for 1 sequence from patent publication US9815883B2, “Inhibiting peptides derived from TREM-like transcript 1 (TLT-1) and uses thereof” (Institut National de la Sante et de la Recherche Medicale …, priority 2010, dated 2017).

Entries after “also recorded” stand apart in the source; their conditions may differ.

For one experiment, the system named is male Balb/c mice. The experiment can be described thus: Caecal ligation and puncture (CLP) polymicrobial sepsis model. In kind it is in vivo, mouse. How it is done: Adult male Balb/c mice (20-23 g) were subjected to caecal ligation and puncture under isoflurane anaesthesia and were randomly grouped (n=5-10 per group) to receive a single LR17 (100 μg in 0.2 mL NaCl 0.9%), scrambled-LR17 ([…] in 0.2 mL NaCl 0.9%), or 0.2 mL NaCl 0.9% i.p. injection. After 24 hours, animals were killed under anaesthesia. Results are mean±SD. p values are *p<0.05, **p<0.01, ***p<0.001 compared with control animals.
(A-B) Adult male Balb/c mice (20-23 g) were subjected to caecal ligation and puncture under isoflurane anaesthesia and were randomly grouped (n=25-40 per group) to receive a LR17, scrambled-LR17, or 0.2 mL NaCl 0.9% i.p. injection at indicated times. Survival was monitored over 1 wk and analyzed by Log Rank test.
Male Balb/c mice (4-6 weeks) were anesthetized with isoflurane. The cecum was exposed through a 1.0 cm abdominal midline incision and subjected to a ligation of the distal half followed by one puncture with a G21 needle. A small amount of stool was expelled from the puncture to ensure patency. The cecum was replaced into the peritoneal cavity and the abdominal incision closed in two layers. After surgery, all mice were injected s.c. with 0.5 mL of 0.9% NaCl solution for fluid resuscitation. The animals were randomly grouped and treated LR17 or LR17-scrambled as control in 250 μL 0.9% NaCl solution and administered i.p. In order to determine the effect of various doses of LR17 at different times, mice were treated with 50, 100 or 200 μg of LR17 at H1 after surgery, or with 3 injections of 100 μg at 2, 6 and 24 hours or with 100 μg in one injection at 24 hours after CLP and then monitored for survival. Five additional animals per group were killed under anaesthesia at 24 h after CLP for the determination of bacterial count and cytokines levels. Peritoneal lavage fluid was obtained using 2 mL RPMI 1640 (EuroBio), and blood was collected by cardiac puncture. Concentrations of plasma cytokines were determined by ELISA (R&Dsystems). For the assessment of bacterial counts, blood and crushed spleen were plated in serial log dilutions on tryptic soy supplemented with 5% sheep blood agar plates. After plating, tryptic soy agar plates were incubated at 37° C. aerobically for 24 h and anaerobically for 48 h. Results are expressed as CFU per ml of blood or per gram of spleen.

The subject of experiment [1] is Trem-1 silenced human monocytes. The experiment can be described thus: TNF-α production by Trem-1 silenced monocytes. It is filed as cell-based. Particulars: Trem-1 siRNA; LPS/anti-TREM-1 mAb. The protocol: (I) ELISA of TNF-α produced by native or Trem-1 silenced human monocytes.
TREM-1 silencing was performed with Human Monocyte Nucleofector Kit (Amaxa) using siRNA sequences obtained from Qiagen. Isolated monocytes were electroporated with siRNA (without siRNA and with siRNA without electroporation as negative control, and with a GFP-reporter plasmid for positive control) and cultured for 24 hours in Human Monocyte Nucleofector Medium (Amaxa) before stimulation. TREM-1 expression was then assessed by quantitative RT-PCR and flow cytometry 24 hours after transfection. Medium was changed and monocytes were stimulated with LPS, anti-TREM-1 mAb and TLT-1-peptides for 24 hours. Therefore, medium was collected for cytokine measurement.

For experiment [2], the system named is TREM-1 ligand expressed on resting or thrombin-activated human platelets. The experiment can be described thus: Flow cytometry binding of FITC-labelled peptides to human platelets. How it is done: (B) Flow cytometry analysis of FITC-labelled LR17 (1 or 5 μg/mL) binding to TREM-1 ligand expressed on resting or thrombin-activated (5 UI/mL) human platelets is reversed by co-incubation with unlabelled LR17, sTLT-1 or LP17, a TREM-1 derived peptide.
Acid Citrate Dextrose blood samples were centrifuged (100 g, 10 min) to obtain Platelet-Rich Plasma. PRP was then centrifuged (550 g, 10 min) over a 36% (wt/vol) BSA gradient and platelets collected from the interphase before being washed in Tyrode's salts buffer (Sigma-Aldrich) supplemented with 5 mM EGTA. For activation, platelets were incubated for 30 minutes with 5 U/mL thrombin (Sigma-Aldrich) or 1 μg/mL E. Coli LPS (0111:B4, Sigma-Aldrich) at 37° C. and subsequently fixed with 2% (wt/vol) paraphormaldehyde (PFA, Sigma-Aldrich). Residual PFA was removed by two additional washing steps in Tyrode buffer. Activation was assessed by anti-CD62P (Beckman Coulter).
Isolated cells (neutrophils, monocytes or platelets) were blocked for aspecific binding with 10% human Ig (Sigma-Aldrich) for 1 hour on ice. Cells were incubated with recombinant soluble FITC-labelled TLT-1-peptides, FITC-labelled LP17 (or corresponding FITC-labelled scrambled peptides), PE-labelled anti-TREM-1 mAb (R&Dsystems), CD62P-FITC, CD66b-PE, CD45-PE, CD14-FITC (all from Beckman Coulter)

In a further experiment the test system is TREM-1. The experiment can be described thus: Cytokine expression and production by stimulated neutrophils and monocytes. It is filed as cell-based, human. How it is done: (E) Cytokines expression: TNF-α mRNA levels in neutrophils stimulated for 6 hours.
(F) Cytokines production: ELISA of TNF-α in neutrophils treated for 2, 6 and 24 hours
(F) Cytokines expression: TNF-α mRNA levels in neutrophils stimulated for 6 hours.
(G-H) Cytokines production: ELISA of TNF-α, in neutrophils treated for 2, 6 and 24 hours.
Depending on the experiment, cells were stimulated in complete medium supplemented with 100 ng/mL of E. Coli LPS (0111:B4, Sigma-Aldrich), anti-TREM-1 mAb (R&Dsystems) and TLT-1-peptides at different times and concentrations on 96-wells plates (Greiner Bio One). Supernatants were collected for cytokine measurements and cells subjected to flow cytometry or lysed for protein phosphorylation analyses and NFkB activity measurement.
Cytokines in supernatants of stimulated human cells or mouse plasma were measured by ELISA (human and mouse Quantikine ELISA kits, R&Dsystems) and cytokines panel assays (Proteome Profiler Human Cytokine Array Kit, Panel A and Proteome Profiler Mouse Cytokine Array Kit, Panel A, R&Dsystems) according to manufacturers' recommendations.

The mark [3] stands for this setting: competition with unlabelled substance.

For the sequence “LQEEDAGEYGCMVDGAR (listed as Homo sapiens) [LR17]”, in the experiment with male Balb/c mice (100 μg i.p. 2 hours after surgery, 24 hours after surgery), the “plasma IL-6 and IL-10 concentrations” value is recorded as “decreased”. Further, the “repeated injections versus single dose administration” value in the experiment on male Balb/c mice (3 injections of 100 μg at 2, 6 and 24 hours) is “not superior”. Also, the “protection against lethality (survival)” value in the experiment with male Balb/c mice (50, 100 or 200 μg, also administered 24 h after onset of sepsis, survival over 1 wk, Log Rank test) was “dose-dependent significant protection”. Besides, the “septicaemia (blood bacterial counts)” value with male Balb/c mice (24 hours) was “almost completely prevented septicaemia”. The “IL-6 and IL-10 in broncho-alveolar lavage fluid and peritoneal lavage fluid” value in the experiment on male Balb/c mice (24 hours after surgery) is listed as “decreased”. In the experiment on male Balb/c mice (24 hours after the CLP), the lung histological alterations result was “attenuated”. Moreover, in the experiment on male Balb/c mice (mouse, in vivo), the “cell infiltration in peritoneum and alveolar space” value is on record as “reduced”; the “coagulation abnormalities (D-dimer and TATc plasma and alveolar concentrations)” value is on record as “prevented”; the “plasma levels of C5a, IL-1ra, IL16, MCP-1, MIP-la, MIP-2 (cytokine array)” value is “decreased concentration”. In addition, in experiment [1], the “TNF-α synthesis by silenced monocytes” value is “did not show any effect”. The “binding of FITC-labelled LR17 to platelets” value in experiment [2] (FITC-labelled peptide 1 or 5 μg/mL, resting or thrombin-activated (5 UI/mL) platelets) was “binds both to resting and thrombin-activated platelets”. In experiment [2] (setting [3]), the “effect of co-incubation on FITC-labelled LP17 binding to platelets” value is “decreased” and the “effect of co-incubation on FITC-labelled LR17 binding to platelets” value is given as “reversed”. For the same sequence, in the experiment with TREM-1, the “production of TNF-α, IL-6, IL-8, GRO-α, IL-1β, IL-16, MCP-1, MIP-1β and RANTES (broad cytokine arrays)” value is on record as “decreased production”. For the same sequence, the “LPS associated TNF-α secretion by neutrophils and monocytes, gene and protein level” value in the experiment with TREM-1 (LPS) is “dose-dependently reduced”. Besides, the “synergy of αTREM-1 with LPS for cytokine production” value in the experiment on TREM-1 (LPS + αTREM-1) was “blocked; also recorded: abrogated”. Besides, the “effects in human monocytes and upon TLR2 (Pam3SK4) stimulation” value with TREM-1 (not shown) was “confirmed to occur”. In addition, in the experiment with TREM-1 (αTREM-1 5 μg/mL, peptide 30 μg/mL), the “cytokine production by activated neutrophils, gene and protein levels (TNF-α, IL-6, IL-8)” value is listed as “able to decrease cytokine production”. Also, the “αTREM-1 induced TNF-α production by neutrophils” value with TREM-1 (αTREM-1 alone) is listed as “abrogated”.
